Reference: article PMC5048153 (Scientific Reports, 2016)

Experiments:
[1] = test system: corticosterone-injured PC12 cells; assay: Protective effects on corticosterone-injured PC12 cells (MTT); assay type: cell-based, rat; parameters: key to PR (protection rate), Table S1: compounds did not shown protection effects on corticosterone-injured PC12 cells; details: 24 h after treatment; for PR (protection rate), Table S1: 1.25µM; for PR (protection rate): 1.25 μM, 200 μM corticosterone
Description: PC12 cells were purchased from American Type Culture Collection and were maintained in DMEM medium supplemented with penicillin (100 unit/ml), streptomycin (100 μg/ml), 5% fetal bovine serum (FBS), and 10% horse serum at 37 °C in humidified atmosphere with 5% CO2. The detailed procedures were performed referring to the reported literatures. Briefly, PC12 cells of logarithmic growth phase were collected, re-suspended and then seeded at a density of 1 × 10^5 cells per well in 96-well plates and cultured in the DMEM medium with 5% horse serum, 10% FBSfor 24 h.
After incubation with compounds, 20 μl of 5 mg/ml MTT solution was added to each well and cultured at 37 °C for 2 h–4 h. Then, the culture medium was removed, and 150 μl dimethyl sulfoxide(DMSO) was added to each well for 15 min at room temperature. The absorbance of each well was measured at 570 nm using a microplate reader. The protective rates (PR) were calculated according to equation (1).

[2] = test system: L02 cells; assay: Cytotoxicity on L02 cells (MTT); assay type: cell-based, human; details: after treatment; for inhibition at 100 µM: Homo sapiens, L02, 100μM, read-out: IR (inhibitory rate) L02
Description: (§1) Human normal hepatic L02 cells, human embryonic kidney cell line 293 cells (HEK293) and Rattus myoblast cell line H9C2 cells were respectively seeded in 96-well plates at a density of 4 × 10^3 cells per well and cultured in the 1640 or DMEM medium, with the supplement of 10% fetal bovine serum, penicillin (100 unit/ml), streptomycin (100 μg/ml) in a humidified incubator with 5% CO2 for 24 h. […] The cytotoxicities of the compounds were evaluated by MTT method.

[3] = test system: HEK293 cells; assay: Cytotoxicity on HEK293 cells (MTT); assay type: cell-based, human; details: after treatment; for inhibition at 100 µM: Homo sapiens, HEK293, 100μM, read-out: IR (inhibitory rate) HEK293
Description: as §1

[4] = biological target: T1, 5-HT2C receptor (Homo sapiens, UniProt P28335); assay: FLIPR assay for 5-HT2C antagonism; assay type: cell-based
T1 sequence (P28335 33-458): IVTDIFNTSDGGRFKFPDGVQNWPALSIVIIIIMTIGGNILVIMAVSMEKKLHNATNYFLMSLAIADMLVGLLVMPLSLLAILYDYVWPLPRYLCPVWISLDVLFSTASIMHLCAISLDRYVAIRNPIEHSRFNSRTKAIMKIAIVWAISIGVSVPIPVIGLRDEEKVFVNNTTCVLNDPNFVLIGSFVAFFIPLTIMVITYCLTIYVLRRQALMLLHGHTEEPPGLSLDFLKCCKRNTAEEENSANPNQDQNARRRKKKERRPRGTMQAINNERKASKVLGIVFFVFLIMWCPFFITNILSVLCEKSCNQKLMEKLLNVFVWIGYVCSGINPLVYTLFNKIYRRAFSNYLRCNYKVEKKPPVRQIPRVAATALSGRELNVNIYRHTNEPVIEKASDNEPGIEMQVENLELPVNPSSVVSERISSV
Description: Seed cells at the density of 10 K cell/well, 37 °C, 5% CO2 incubate for 16–24 hours, then loading cells with 30 ul of Calcium 5 and 37 °C, 5% CO2 incubate for 1 hour. After transfer compound to compound plate with 30 ul Assay Buffer by Echo, add 15 ul/well of compound, incubate for 10 mins.

Row | Compound | PR (protection rate), Table S1 [1] | PR (protection rate) [1] | inhibition at 100 µM [2] [%] | inhibition at 100 µM [3] [%] | IC50 [4] [nM] | inhibition at 100 µM ([4]; read-out: Inhibition 5-HT2C) [%] | IR (inhibitory rate) L02 ([2]; 100μM) [%] | IR (inhibitory rate) HEK293 ([3]; 100μM) [%]
1 | COc1ccc2c(c1)C(CCNC(=O)c1cc(Cl)ccc1Br)=NCC2.O=C(O)C(=O)O [6a-27, 2-Bromo-5-chloro-N-(2-(7-methoxy-3,4-dihydroisoquinolin-1-yl)ethyl)benzamide oxalate] | 10.1% | above 10% | 45.9 | 51.8 |  |  |  | 
2 | COc1ccc2c(c1)C(CCNC(=O)c1cc(C(F)(F)F)ccc1Br)=NCC2.O=C(O)C(=O)O [6a-28, 2-Bromo-N-(2-(7-methoxy-3,4-dihydroisoquinolin-1-yl)ethyl)-5-(trifluoromethyl)benzamide oxalate] | 2.4% |  | 43.7 | 58.5 |  |  |  | 
3 | COc1ccc2c(c1)C(CCNC(=O)c1cncc(Br)c1)=NCC2.O=C(O)C(=O)O [6a-29, 5-Bromo-N-(2-(7-methoxy-3,4-dihydroisoquinolin-1-yl)ethyl)nicotinamide oxalate] | - |  | 14.4 | 29.5 |  |  |  | 
4 | COc1ccc2c(c1)C(CCNC(=O)c1cc(Br)cnc1Cl)=NCC2.O=C(O)C(=O)O [6a-30, 5-Bromo-2-chloro-N-(2-(7-methoxy-3,4-dihydroisoquinolin-1-yl)ethyl)nicotinamide oxalate] | - |  | 47.5 | 49.1 |  |  |  | 
5 | COc1ccc2c(c1)C(CCNC(=O)c1ccc(Br)nc1)=NCC2.O=C(O)C(=O)O [6a-31, 6-Bromo-N-(2-(7-methoxy-3,4-dihydroisoquinolin-1-yl)ethyl)nicotinamide oxalate] | 0.2% |  | 46.1 | 56.1 |  |  |  | 
6 | COc1ccc2c(c1)C(CCNC(=O)NC1CC1)=NCC2.O=C(O)C(=O)O [6b-1, 1-Cyclopropyl-3-(2-(7-methoxy-3,4-dihydroisoquinolin-1-yl)ethyl)urea oxalate] | - |  | 27.2 | 19.5 |  |  |  | 
7 | COc1ccc2c(c1)C(CCNC(=O)Nc1cccc(Cl)c1)=NCC2.O=C(O)C(=O)O [6b-2, 1-(3-Chlorophenyl)-3-(2-(7-methoxy-3,4-dihydroisoquinolin-1-yl)ethyl)urea oxalate] | - |  | 38.9 | 37.9 |  |  |  | 
8 | COc1ccc2c(c1)C(CCNC(=O)Nc1ccc(C(F)(F)F)cc1)=NCC2.O=C(O)C(=O)O [6b-3, 1-(2-(7-Methoxy-3,4-dihydroisoquinolin-1-yl)ethyl)-3-(4-(trifluoromethyl)phenyl)urea oxalate] | 10.7% | above 10% | 35.8 | 23.2 |  |  |  | 
9 | COc1ccc2c(c1)C(CCNC(=O)Nc1ccccc1C(F)(F)F)=NCC2.O=C(O)C(=O)O [6b-4, 1-(2-(7-Methoxy-3,4-dihydroisoquinolin-1-yl)ethyl)-3-(2-(trifluoromethyl)phenyl)urea oxalate] | 11.9% | above 10% | 57.7 | 29.2 |  |  |  | 
10 | COc1ccc2c(c1)C(CCNC(=O)Nc1cc(Cl)c(Cl)c(Cl)c1)=NCC2.O=C(O)C(=O)O [6b-5, 1-(2-(7-Methoxy-3,4-dihydroisoquinolin-1-yl)ethyl)-3-(3,4,5-trichlorophenyl)urea oxalate] | - |  | 40.7 | 40.1 |  |  |  | 
11 | COc1ccc2c(c1)C(CCNC(=O)Nc1c(C)cc(C#N)cc1C)=NCC2.O=C(O)C(=O)O [6b-6, 1-(4-Cyano-2,6-dimethylphenyl)-3-(2-(7-methoxy-3,4-dihydroisoquinolin-1-yl)ethyl)urea oxalate] | - |  | < 20 | < 20 |  |  |  | 
12 | COc1ccc2c(c1)C(CCNC(=O)Nc1ccc(C#N)c(F)c1)=NCC2.O=C(O)C(=O)O [6b-7, 1-(4-Cyano-3-fluorophenyl)-3-(2-(7-methoxy-3,4-dihydroisoquinolin-1-yl)ethyl)urea oxalate] | - |  | 24.7 | 27.2 |  |  |  | 
13 | COc1ccc2c(c1)C(CCNC(=O)Nc1ccc(Br)cn1)=NCC2.O=C(O)C(=O)O [6b-12, 1-(5-Bromopyridin-2-yl)-3-(2-(7-methoxy-3,4-dihydroisoquinolin-1-yl)ethyl)urea oxalate] | 16.3% | above 10% | 48.1 | 49.4 |  |  |  | 
14 | COc1ccc2c(c1)C(CCNC(=O)Nc1cccc3ccccc13)=NCC2.O=C(O)C(=O)O [6b-13, 1-(2-(7-Methoxy-3,4-dihydroisoquinolin-1-yl)ethyl)-3-(naphthalen-1-yl)urea oxalate] | - |  | < 20 | < 20 |  |  |  | 
15 | COc1ccc2c(c1)C(CCNC(=O)Nc1ccc(F)c(Cl)c1)=NCC2.O=C(O)C(=O)O [6b-14, 1-(3-Chloro-4-fluorophenyl)-3-(2-(7-methoxy-3,4-dihydroisoquinolin-1-yl)ethyl)urea oxalate] | - |  | 47.7 | 22.8 |  |  |  | 
16 | COc1ccc2c(c1)C(CCNC(=O)Nc1cccc([N+](=O)[O-])c1)=NCC2.O=C(O)C(=O)O [6b-15, 1-(2-(7-Methoxy-3,4-dihydroisoquinolin-1-yl)ethyl)-3-(3-nitrophenyl)urea oxalate] | - |  | 48.9 | 47.5 |  |  |  | 
17 | COc1ccc2c(c1)C(CCNC(=O)Nc1nccs1)=NCC2.O=C(O)C(=O)O [6b-17, 1-(2-(7-Methoxy-3,4-dihydroisoquinolin-1-yl)ethyl)-3-(thiazol-2-yl)urea oxalate] | 13.9% | above 10% | 20.1 | 21.9 |  |  |  | 
18 | COc1ccc2c(c1)C(CCNC(=O)Nc1ccc(Cl)c(Cl)c1)=NCC2.O=C(O)C(=O)O [6b-18, 1-(3,4-Dichlorophenyl)-3-(2-(7-methoxy-3,4-dihydroisoquinolin-1-yl)ethyl)urea oxalate] | 12.8% | above 10% | 57.5 | 56.1 |  |  |  | 
19 | COc1ccc2c(c1)C(CCNC(=O)Nc1ccccc1[N+](=O)[O-])=NCC2 [6b-19, 1-(2-(7-Methoxy-3,4-dihydroisoquinolin-1-yl)ethyl)-3-(2-nitrophenyl)ureaoxalate] | - |  | 31.5 | 33.5 |  |  |  | 
20 | COc1ccc2c(c1)C(CCNC(=O)Nc1ccc(CC#N)cc1)=NCC2.O=C(O)C(=O)O [6b-20, 1-(4-(Cyanomethyl)phenyl)-3-(2-(7-methoxy-3,4-dihydroisoquinolin-1-yl)ethyl)urea oxalate] | - |  | 52 | 47.8 |  |  |  | 
21 | COc1ccc2c(c1)C(CCNC(=O)Nc1ccc(Br)cc1)=NCC2 [6b-21, 1-(4-Bromophenyl)-3-(2-(7-methoxy-3,4-dihydroisoquinolin-1-yl)ethyl)ureaoxalate] | - |  | 38.3 | 41.2 |  |  |  | 
22 | COc1ccc2c(c1)C(CCNC(=O)Nc1ncccc1Br)=NCC2.O=C(O)C(=O)O [6b-22, 1-(3-Bromopyridin-2-yl)-3-(2-(7-methoxy-3,4-dihydroisoquinolin-1-yl)ethyl)urea oxalate] | - |  | 48.5 | 46.4 |  |  |  | 
23 | CC[C@@H](CO)NC(=O)[C@@H]1C=C2c3cccc4c3c(cn4C)C[C@H]2N(C)C1 [Methysergide] |  |  |  |  | 25 | 101 |  | 
24 | N-(2-(7-Methoxy-3,4-dihydroisoquinolin-1-yl)ethyl)-4-methylbenzamide oxalate [6a-32] | - |  |  |  |  |  | 43.2 | 54.8
